“Also recorded” adds a separate entry of the source.
Key:
pregnant rats = assay: Assessment of compound teratogenicity; format: in vivo; details: for teratogenic activity / fetal malformations: 0.66 micomoles/kg single oral bolus at E9.25, fetuses at E21.5
Description: Assessment of Compound Teratogenicity. Female rats (Harlan Sprague-Dawley, Madison, Wis. approximately 200 to 250 g in weight) were maintained on normal laboratory rat chow and mated with normal rats of the same strain. Pregnant rats were given a single oral bolus dose of compound dissolved in Wesson® corn oil. Each dose was 60-100 μL. The doses were given at day 9.25. Each […] was maintained under standard laboratory conditions until euthanasia at embryonic day 21.5. The fetuses were removed. Fetuses with a heartbeat were determined to be alive. The number of live and dead fetuses were recorded. The number of resorption sites was also recorded. The live fetuses were examined for gross external malformations. All animals were maintained in accordance with protocol approved by the University of Wisconsin-Madison animal care committee.

MCF-7 cells [1] = assay: Cell growth inhibition assay; format: cell-based, human; details: for cell growth inhibition, MCF-7: compared with 4-HPTTNPB, assays 'may be performed'; for response of MCF-7 cells (live cells / cell death): single treatment, 72 hours
Description: (§1) Cell growth inhibition and TUNEL assays. […] The cells were plated at 50,000 cells/well in 12-well plates. The wells were dosed with varying amounts of retinoid compounds. At cell harvest, propidium iodide was added. Half of the cells were used to determine the number of live and dead cells after adding fluorescein diacetate, which yields a fluorescent product upon cleavage by metabolically active cells. The other half were fixed in 4% paraformaldehyde, dried on aminosilane coated slides and used to determine TUNEL and propidium iodide staining.
Cell culture. The human mammary carcinoma cell line, MCF-7, may be obtained from the American Type Culture Collection (Mannassas, Va.). MCF-7 cells may be maintained in DMEM (Sigma-Aldrich) medium supplemented with 4 g/L glucose, 3.7 g/L sodium bicarbonate and 10% fetal calf serum.
Assay for cell growth inhibition. Cells are plated in flasks/wells of a tissue culture dish. After 24 hours, cells are dosed with a compound of the present invention at varying concentrations, and after 72 hours, the cells are removed from flasks/plates and counted. Fluorescence (due to staining of cells with fluorescein diacetate) was used to count the number of live cells. Phase-contrast microscopy is used to count the total number of cells.

[2] = system: DMBA-induced mammary tumors; assay: Inhibition of DMBA-induced mammary tumors; format: in vivo; details: studies 'may be performed'
MCF-7 cells [3] = assay: TUNEL assay (DNA fragmentation); format: cell-based, human; details: for induction of apoptosis / DNA fragmentation: MCF-7 cells, 72 hours, 4-HPTTNPB and 4-HBTTNPB at the highest doses; for activity in DNA fragmentation study: compared with 4-HPTTNPB, studies 'may be performed'
Description: as §1

RXRgamma = target: T1, RXRgamma (Mus musculus, UniProt P28705); assay: Nuclear RXR competition binding assay ([3H]-9-cis-RA, hydroxylapatite); design: species or system murine; details: for competition binding to RXRs: compared with 4-HPTTNPB, studies 'may be performed'
T1 construct: made in house; host or cells: insect cells infected with baculovirus expression vectors; nuclear extracts
T1 sequence (P28705 1-463): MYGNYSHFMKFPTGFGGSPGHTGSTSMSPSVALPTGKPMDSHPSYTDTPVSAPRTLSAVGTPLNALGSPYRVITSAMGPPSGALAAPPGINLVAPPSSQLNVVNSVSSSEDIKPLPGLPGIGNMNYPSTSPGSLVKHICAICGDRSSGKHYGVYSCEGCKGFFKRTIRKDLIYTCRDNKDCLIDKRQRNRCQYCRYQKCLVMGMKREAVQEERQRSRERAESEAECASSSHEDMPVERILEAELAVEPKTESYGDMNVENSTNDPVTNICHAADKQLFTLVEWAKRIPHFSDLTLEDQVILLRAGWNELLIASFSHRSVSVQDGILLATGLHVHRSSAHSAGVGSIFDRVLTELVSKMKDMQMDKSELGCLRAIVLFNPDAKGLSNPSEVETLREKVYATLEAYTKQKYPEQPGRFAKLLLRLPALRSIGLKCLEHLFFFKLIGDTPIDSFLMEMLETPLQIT
Description: Nuclear Retinoid Receptor (RAR/RXR) Binding. Competition of retinoids with [^3H]-all-trans-RA for binding to RARalpha, RARbeta and RARgamma and with [^3H]-9-cis-RA for binding to RXRgamma was determined using an in vitro ligand binding assay. […] Radiolabeled ligands were added to receptor-containing extracts in the absence and presence of increasing concentrations of competing ligands followed by separating ligand bound to the receptor from that free in solution using a hydroxylapatite (HAP) assay.

[4] = system: T2, RARalpha, RARbeta and RARgamma; assay: Nuclear RAR competition binding assay ([3H]-all-trans-RA, hydroxylapatite); design: species or system human RARalpha and RARgamma, murine RARbeta; details: for competition with [3H]-all-trans-RA for binding to the RARs: RAR types alpha, beta and gamma, stated collectively; for competition binding to RARs: compared with 4-HPTTNPB, studies 'may be performed'
T2 construct: fused on or other part: RARalpha was expressed as a fusion protein in E. coli
Description: Nuclear Retinoid Receptor (RAR/RXR) Binding. Competition of retinoids with [^3H]-all-trans-RA for binding to RARalpha, RARbeta and RARgamma and with [^3H]-9-cis-RA for binding to RXRgamma was determined using an in vitro ligand binding assay. (See Clagett-Dame et al., Methods for generating and characterizing retinoid receptors from E. coli and insect cell expression systems, Meth. Enzymol., 282:13-14 (1997)). Recombinant human RARalpha was expressed as a fusion protein in E. coli (see Repa J J et al., All-trans retinol is a ligand for the retinoic acid receptors, Proc Natl Acad Sci USA, 90:7293-7297 (1993)). […] Radiolabeled ligands were added to receptor-containing extracts in the absence and presence of increasing concentrations of competing ligands followed by separating ligand bound to the receptor from that free in solution using a hydroxylapatite (HAP) assay.

[5] = system: F9-RARE-lacZ reporter cell line; assay: F9 reporter gene assay; format: cell-based; details: for potency in activating the reporter system compared with atRA and TTNPB: versus atRA and TTNPB
Description: Reporter gene assay. […] Data were normalized for total protein using the method set forth in Bradford M M, Anal Biochem, 72:248-254 (1976).

[6] = TTNPB: at concentrations above 10^-6 M, 4-HPTTNPB and 4-HPR: at the highest concentration

competition with [3H]-9-cis-RA for binding to RXRgamma (RXRgamma; [6])	SMILES	response of MCF-7 cells (live cells / cell death) (MCF-7 cells [1])	toxicity in DMBA-induced mammary tumor studies [2]	induction of apoptosis / DNA fragmentation (MCF-7 cells [3])	competition binding to RXRs (RXRgamma)	competition with [3H]-all-trans-RA for binding to the RARs [4]	competition binding to RARs [4]	cell growth inhibition, MCF-7 (MCF-7 cells [1])	further results
	C/C(=C\c1ccc(C(=O)Cc2ccc(O)cc2)cc1)c1ccc2c(c1)C(C)(C)CCC2(C)C [4-HBTTNPB, E-4-[2-methyl-2-(1,1,4,4-tetramethyl-1,2,3,4-tetrahydronapth-7-yl)-vinyl]-phenyl-2′-(4′-hydroxyphenyl)-1′-ethanone]	dose-dependent decrease	little, if any, toxicity	very active	only slight binding competition	competed poorly	bind only very weakly		teratogenic activity / fetal malformations (pregnant rats): devoid of any observable teratogenic activity; teratogenic potential / embryotoxicity (pregnant rats; 'the data will demonstrate'): little, if any, observable embrotoxicity; number of dead and resorbed fetuses compared with vehicle group (pregnant rats; rat, in vivo, po): did not differ; cell growth inhibition, MCF-7 (MCF-7 cells [1]; listed as 23): inhibits growth of MCF-7 cells in a dose-dependent manner; activity in DNA fragmentation study (MCF-7 cells [3]): activity similar to 4-HPTTNPB
almost no competition	CC1=C(/C=C/C(C)=C/C=C/C(C)=C/C(=O)Nc2ccc(O)cc2)C(C)(C)CCC1 [4-HPR, N-(4-hydroxyphenyl) retinamide, reference compound]	cell death		high degree of apoptosis		only weak competition			potency in activating the reporter system compared with atRA and TTNPB [5]: approximately 1000 fold less potent; potency of competition for RAR binding compared with TTNPB ([4]; versus TTNPB): 3-4 orders of magnitude less potent
	CCCc1cc2c(cc1/C(C)=C/c1ccc(C(=O)Nc3ccc(O)cc3)cc1)C(C)(C)CCC2(C)C [Compound 12, E-4-[2-methyl-2-(6-propyl-1,1,4,4-tetramethyl-1,2,3,4-tetrahydronapth-7-yl)-vinyl]-benzoic acid 4-hydroxyanilide]				only slight binding competition		bind only very weakly	inhibits growth of MCF-7 cells in a dose-dependent manner	
	C/C(=C\c1ccc(C(=O)Cc2ccc(OC3OC(C(=O)O)C(O)C(O)C3O)cc2)cc1)c1ccc2c(c1)C(C)(C)CCC2(C)C (stereo not shown) [Compound 25]		little, if any, toxicity		no better at binding to RXRs than 4-HPTTNPB		only slightly better at binding to RARs than 4-HPTTNPB	inhibits growth of MCF-7 cells in a dose-dependent manner; also recorded: less active than 4-HPTTNPB	teratogenic potential / embryotoxicity (pregnant rats; 'the data will demonstrate'): little, if any, observable embrotoxicity; activity in DNA fragmentation study (MCF-7 cells [3]): less active than 4-HPTTNPB
	C/C(=C\c1ccc(C(=O)Cc2ccc(O[C@@H]3O[C@H](CO)[C@@H](O)[C@H](O)[C@H]3O)cc2)cc1)c1ccc2c(c1)C(C)(C)CCC2(C)C [Compound 33, E-4-[2-methyl-2-(1,1,4,4-tetramethyl-1,2,3,4-tetrahydronaphth-7-yl)-vinyl]-phenyl-2′-(4′-beta-D-glucopyranosyloxyphenyl)-1′-ethanone]		little, if any, toxicity		no better at binding to RXRs than 4-HPTTNPB		only slightly better at binding to RARs than 4-HPTTNPB	inhibits growth of MCF-7 cells in a dose-dependent manner	teratogenic potential / embryotoxicity (pregnant rats; rat, in vivo): little, if any, observable embrotoxicity
very effective	C=C(c1ccc(C(=O)O)cc1)c1cc2c(cc1C)C(C)(C)CCC2(C)C [LGD1069, reference compound]								
very weak competition	C/C(=C\c1ccc(C(=O)O)cc1)c1ccc2c(c1)C(C)(C)CCC2(C)C [TTNPB, E-4-[2-methyl-2-(1,1,4,4-tetramethyl-1,2,3,4-tetrahydronapth-7-yl)-vinyl]-benzoic acid, reference compound]	nearly ineffective		ineffective		very effective			activity in the F9 reporter assay (beta-galactosidase) [5]: highly active; competition with [3H]-9-cis-RA for binding to RXRgamma (RXRgamma; at 10^-4.5 M): 44%
	CC1=C(/C=C/C(C)=C/C=C/C(C)=C/C(=O)O)C(C)(C)CCC1 [atRA, all-trans retinoic acid, reference compound]								activity in the F9 reporter assay (beta-galactosidase) [5]: highly active

SMILES	competition with [3H]-9-cis-RA for binding to RXRgamma (RXRgamma; [6])	response of MCF-7 cells (live cells / cell death) (MCF-7 cells [1])	toxicity in DMBA-induced mammary tumor studies [2]	induction of apoptosis / DNA fragmentation (MCF-7 cells [3])	competition binding to RXRs (RXRgamma)	competition with [3H]-all-trans-RA for binding to the RARs [4]	competition binding to RARs [4]	cell growth inhibition, MCF-7 (MCF-7 cells [1])	further results
C/C(=C\c1ccc(C(=O)Nc2ccc(O)cc2)cc1)c1ccc2c(c1)C(C)(C)CCC2(C)C [4-HPTTNPB, E-4-[2-methyl-2-(1,1,4,4-tetramethyl-1,2,3,4-tetrahydronapth-7-yl)-vinyl]-benzoic acid 4-hydroxyanilide]	almost no competition	dose-dependent decrease		very active		competed poorly; also recorded: did not show any significant binding			teratogenic activity / fetal malformations (pregnant rats): all profoundly malformed; percentage of the fetuses at embryonic day 21.5 either dead or resorbed (pregnant rats; 0.66 micomoles/kg single oral bolus at E9.25, three pregnant rats): > 80%; potency in activating the reporter system compared with atRA and TTNPB [5]: around 100 fold less potent

From patent US7968602B2, “4-[(E)-2-(5,6,7,8-tetrahydro-5,5,8,8-tetramethyl-2-napthalenyl)-1-propenyl]benzoic acid analogs and method of manufacture and use thereof” (Wisconsin Alumni Research Foundation, priority 2005, dated 2011)
